From patent US9926282B2, “Phthalazinones and isoquinolinones as rock inhibitors” (BRISTOL-MYERS SQUIBB COMPANY, priority 2013, dated 2018)

Experiments:
ROCK2 = ROCK2 (Homo sapiens (Human), UniProt O75116); test: ROCK assay (LABCHIP peptide phosphorylation), ROCK2; assay type: biochemical; conditions: 5 μM ATP, 1.5 μM peptide substrate
ROCK1 = ROCK1 (Homo sapiens (Human), UniProt Q13464); test: ROCK assay (LABCHIP peptide phosphorylation), ROCK1; assay type: biochemical; conditions: 5 μM ATP, 1.5 μM peptide substrate; read-out: ROCK1 IC50
Sequence of ROCK1 (Q13464 whole entry, species assumed): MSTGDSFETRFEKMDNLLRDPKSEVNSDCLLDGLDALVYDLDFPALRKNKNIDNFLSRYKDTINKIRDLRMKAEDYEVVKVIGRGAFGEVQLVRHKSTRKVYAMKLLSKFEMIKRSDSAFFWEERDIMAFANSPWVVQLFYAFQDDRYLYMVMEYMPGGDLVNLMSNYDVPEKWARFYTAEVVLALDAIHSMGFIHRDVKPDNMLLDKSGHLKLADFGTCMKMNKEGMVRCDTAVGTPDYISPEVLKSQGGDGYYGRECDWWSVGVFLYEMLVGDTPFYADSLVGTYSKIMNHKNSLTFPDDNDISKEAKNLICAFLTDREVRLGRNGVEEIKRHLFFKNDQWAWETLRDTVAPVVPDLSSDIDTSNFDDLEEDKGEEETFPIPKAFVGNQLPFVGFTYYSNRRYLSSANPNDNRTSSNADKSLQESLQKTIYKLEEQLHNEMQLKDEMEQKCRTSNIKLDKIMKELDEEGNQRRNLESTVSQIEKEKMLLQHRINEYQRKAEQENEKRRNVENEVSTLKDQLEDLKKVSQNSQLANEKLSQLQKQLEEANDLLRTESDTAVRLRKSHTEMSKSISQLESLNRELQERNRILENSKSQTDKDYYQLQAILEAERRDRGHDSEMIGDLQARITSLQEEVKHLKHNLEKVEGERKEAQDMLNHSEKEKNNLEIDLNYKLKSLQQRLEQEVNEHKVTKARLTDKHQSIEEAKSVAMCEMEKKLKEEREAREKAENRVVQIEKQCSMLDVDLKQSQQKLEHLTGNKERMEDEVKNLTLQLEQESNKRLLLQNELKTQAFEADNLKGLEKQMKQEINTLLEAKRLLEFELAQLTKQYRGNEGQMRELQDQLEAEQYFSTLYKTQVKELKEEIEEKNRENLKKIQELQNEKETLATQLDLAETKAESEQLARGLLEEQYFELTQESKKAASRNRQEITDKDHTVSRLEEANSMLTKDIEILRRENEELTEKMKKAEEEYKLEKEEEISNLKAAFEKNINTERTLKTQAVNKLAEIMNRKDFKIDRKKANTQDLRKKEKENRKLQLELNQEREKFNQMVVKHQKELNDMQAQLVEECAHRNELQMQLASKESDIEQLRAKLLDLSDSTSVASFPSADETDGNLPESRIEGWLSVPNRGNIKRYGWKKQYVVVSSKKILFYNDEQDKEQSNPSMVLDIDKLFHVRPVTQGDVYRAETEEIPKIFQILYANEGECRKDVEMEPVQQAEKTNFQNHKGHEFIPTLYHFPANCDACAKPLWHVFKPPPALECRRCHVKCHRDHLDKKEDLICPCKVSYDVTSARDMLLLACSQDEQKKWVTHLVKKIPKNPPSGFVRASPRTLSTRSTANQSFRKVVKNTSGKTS

Sequence of ROCK2 (O75116 whole entry, species assumed): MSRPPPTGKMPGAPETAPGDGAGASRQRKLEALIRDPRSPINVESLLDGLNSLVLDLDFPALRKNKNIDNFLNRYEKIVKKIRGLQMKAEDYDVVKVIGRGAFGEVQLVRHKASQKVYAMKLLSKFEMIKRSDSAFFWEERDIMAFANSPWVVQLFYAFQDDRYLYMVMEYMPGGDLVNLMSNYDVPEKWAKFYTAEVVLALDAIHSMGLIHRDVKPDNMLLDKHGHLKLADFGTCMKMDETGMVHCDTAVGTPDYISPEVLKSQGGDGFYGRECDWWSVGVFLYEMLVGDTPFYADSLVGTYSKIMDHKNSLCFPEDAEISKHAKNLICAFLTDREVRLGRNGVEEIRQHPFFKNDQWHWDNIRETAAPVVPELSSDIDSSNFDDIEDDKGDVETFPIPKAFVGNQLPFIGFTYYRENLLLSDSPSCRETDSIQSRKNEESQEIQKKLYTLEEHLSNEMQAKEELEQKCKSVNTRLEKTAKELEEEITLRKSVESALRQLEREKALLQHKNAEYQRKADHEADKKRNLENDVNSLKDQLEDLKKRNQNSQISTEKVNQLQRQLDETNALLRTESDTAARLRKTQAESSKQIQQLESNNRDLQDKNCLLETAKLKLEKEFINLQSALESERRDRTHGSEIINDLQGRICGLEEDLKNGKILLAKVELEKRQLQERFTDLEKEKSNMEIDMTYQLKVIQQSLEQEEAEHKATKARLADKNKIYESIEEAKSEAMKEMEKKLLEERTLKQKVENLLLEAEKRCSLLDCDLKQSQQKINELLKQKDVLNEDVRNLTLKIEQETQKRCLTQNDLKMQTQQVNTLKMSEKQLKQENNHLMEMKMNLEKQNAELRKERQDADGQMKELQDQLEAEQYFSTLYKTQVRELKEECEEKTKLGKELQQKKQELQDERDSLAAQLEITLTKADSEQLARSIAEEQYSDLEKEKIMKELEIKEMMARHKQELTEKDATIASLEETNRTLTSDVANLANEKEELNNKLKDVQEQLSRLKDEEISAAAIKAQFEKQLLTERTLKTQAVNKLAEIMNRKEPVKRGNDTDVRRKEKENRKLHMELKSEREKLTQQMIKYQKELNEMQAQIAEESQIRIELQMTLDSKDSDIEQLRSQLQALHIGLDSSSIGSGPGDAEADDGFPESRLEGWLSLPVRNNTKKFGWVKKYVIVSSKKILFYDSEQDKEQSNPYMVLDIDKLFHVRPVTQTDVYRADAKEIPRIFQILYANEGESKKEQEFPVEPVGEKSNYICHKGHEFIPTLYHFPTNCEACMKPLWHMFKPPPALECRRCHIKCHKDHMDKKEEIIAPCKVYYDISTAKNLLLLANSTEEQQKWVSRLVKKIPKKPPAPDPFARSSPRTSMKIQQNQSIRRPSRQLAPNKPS

| Compound | IC50 (ROCK2) [nM] | IC50 (ROCK1) [nM] |
| --- | --- | --- |
| O=C(O)Cn1nc(C(=O)Nc2ccc(-c3n[nH]c(=O)c4ccccc34)cc2)c2ccccc21 [Example 328, 2-(3-{[4-(4-Oxo-3,4-dihydrophthalazin-1-yl)phenyl]carbamoyl}-1H-indazol-1-yl)acetic Acid] | 0.1 to 100 | 101 to 1000 |
| O=C(Nc1ccc(-c2n[nH]c(=O)c3ccccc23)cc1)c1ccc(N2CCOCC2)cc1 [Example 63, 4-(morpholin-4-yl)-N-[4-(4-oxo-3,4-dihydrophthalazin-1-yl)phenyl]benzamide] | 0.1 to 100 | 101 to 1000 |
| Cc1cc(C(=O)Nc2ccc(-c3n[nH]c(=O)c4ccccc34)cc2)nn1Cc1ccccc1 [Example 208, 1-benzyl-5-methyl-N-[4-(4-oxo-3,4-dihydrophthalazin-1-yl)phenyl]-1H-pyrazole-3-carboxamide] | 0.1 to 100 | 0.1 to 100 |
| CC(C(=O)N1CCc2ccccc21)c1ccc(-c2n[nH]c(=O)c3ccccc23)cc1 (centres unmarked) [Example 42, 4-(4-(1-(Indolin-1-yl)-1-oxopropan-2-yl)phenyl)phthalazin-1(2H)-one] | 0.1 to 100 | 1000 to 50000 |
| O=C(Cn1nc(C(=O)Nc2ccc(-c3n[nH]c(=O)c4ccccc34)cc2)c2ccccc21)NCC1(O)CCC1 [Example 335, 1-(2-(((1-Hydroxycyclobutyl)methyl)amino)-2-oxoethyl)-N-(4-(4-oxo-3,4-dihydrophthalazin-1-yl)phenyl)-1H-indazole-3-carboxamide] | 0.1 to 100 | 0.1 to 100 |
| COc1ccc2c(c1)CN(C(=O)Oc1ccc(-c3c[nH]c(=O)c4ccc(OC)cc34)cc1)C2 [Example 267, 4-(6-Methoxy-1-oxo-1,2-dihydroisoquinolin-4-yl)phenyl 5-methoxyisoindoline-2-carboxylate] | 0.1 to 100 | 101 to 1000 |
| O=C(Nc1ccc(-c2n[nH]c(=O)c3ccccc23)cc1)c1c[nH]c2ncccc12 [Example 135, N-[4-(4-oxo-3,4-dihydrophthalazin-1-yl)phenyl]-1H-pyrrolo[2,3-b]pyridine-3-carboxamide] | 0.1 to 100 | 101 to 1000 |
| Cc1cc(NC(=O)c2nn(CC3CN(C)C3)c3ccccc23)ccc1-c1n[nH]c(=O)c2ccccc12 [Example 330, N-(3-Methyl-4-(4-oxo-3,4-dihydrophthalazin-1-yl)phenyl)-1-((1-methylazetidin-3-yl)methyl)-1H-indazole-3-carboxamide] | 101 to 1000 | 0.1 to 100 |
| COc1ccc2c(=O)[nH]cc(-c3ccc(NC(=O)N4CCc5ccccc54)cc3)c2c1 [Example 266, N-(4-(6-Methoxy-1-oxo-1,2-dihydroisoquinolin-4-yl)phenyl)indoline-1-carboxamide] | 0.1 to 100 | 0.1 to 100 |
| O=C(Nc1ccc(-c2n[nH]c(=O)c3ccccc23)cc1)c1n[nH]c2ncccc12 [Example 110, N-[4-(4-oxo-3,4-dihydrophthalazin-1-yl)phenyl]-1H-pyrazolo[3,4-b]pyridine-3-carboxamide] | 0.1 to 100 | 0.1 to 100 |
| O=C(Cc1ccc(-c2n[nH]c(=O)c3ccccc23)cc1)N1CCc2ccc(C(F)(F)F)cc21 [Example 35, 4-(4-{2-oxo-2-[6-(trifluoromethyl)-2,3-dihydro-1H-indol-1-yl]ethyl}phenyl)-1,2-dihydrophthalazin-1-one] | 0.1 to 100 | 101 to 1000 |
| Cc1oc2ccc(OCc3ccccc3)cc2c1C(=O)Nc1ccc(-c2n[nH]c(=O)c3ccccc23)cc1 [Example 105, 5-(benzyloxy)-2-methyl-N-[4-(4-oxo-3,4-dihydrophthalazin-1-yl)phenyl]-1-benzofuran-3-carboxamide] | 0.1 to 100 | 101 to 1000 |
| COc1ccc2c(=O)[nH]cc(-c3ccc(NC(=O)N4CCc5ccccc54)cc3C)c2c1 [Example 323, N-(4-(6-Methoxy-1-oxo-1,2-dihydroisoquinolin-4-yl)-3-methylphenyl)indoline-1-carboxamide] | 0.1 to 100 | 0.1 to 100 |
| O=C(Nc1ccc(-c2n[nH]c(=O)c3ccccc23)cc1)C1CC(c2cccc(Cl)c2F)=NO1 (centres unmarked) [Example 193, 3-(3-chloro-2-fluorophenyl)-N-[4-(4-oxo-3,4-dihydrophthalazin-1-yl)phenyl]-4,5-dihydro-1,2-oxazole-5-carboxamide] | 101 to 1000 | 1000 to 50000 |
| O=C(Nc1ccc(-c2n[nH]c(=O)c3ccccc23)cc1)c1cc2ccccc2n1Cc1ccccc1 [Example 136, 1-benzyl-N-[4-(4-oxo-3,4-dihydrophthalazin-1-yl)phenyl]-1H-indole-2-carboxamide] | 0.1 to 100 | 1000 to 50000 |
| Cn1nc2c(c1C(=O)Nc1ccc(-c3n[nH]c(=O)c4ccccc34)cc1)CCCC2 [Example 116, 2-methyl-N-[4-(4-oxo-3,4-dihydrophthalazin-1-yl)phenyl]-4,5,6,7-tetrahydro-2H-indazole-3-carboxamide] | 0.1 to 100 | 0.1 to 100 |
| CCn1cncc1C(=O)Nc1ccc(-c2n[nH]c(=O)c3ccccc23)cc1 [Example 233, 1-ethyl-N-[4-(4-oxo-3,4-dihydrophthalazin-1-yl)phenyl]-1H-imidazole-5-carboxamide] | 101 to 1000 | 101 to 1000 |

| Compound | IC50 (ROCK2) [nM] | IC50 (ROCK1) [nM] |
| --- | --- | --- |
| Cc1cc(C(=O)Nc2ccc(-c3n[nH]c(=O)c4ccccc34)cc2)nn1C(C)(C)C [Example 235, 1-tert-butyl-5-methyl-N-[4-(4-oxo-3,4-dihydrophthalazin-1-yl)phenyl]-1H-pyrazole-3-carboxamide] | 0.1 to 100 | 0.1 to 100 |
| CN(C(=O)Cc1ccc(-c2n[nH]c(=O)c3ccccc23)cc1)c1ccccc1 [Example 22, N-methyl-2-[4-(4-oxo-3,4-dihydrophthalazin-1-yl)phenyl]-N-phenylacetamide] | 1000 to 50000 | 1000 to 50000 |
| O=C(Cc1ccc(-c2n[nH]c(=O)c3ccccc23)cc1)N1CCCc2ccccc21 [Example 34, 4-{4-[2-oxo-2-(1,2,3,4-tetrahydroquinolin-1-yl)ethyl]phenyl}-1,2-dihydrophthalazin-1-one] | 101 to 1000 | 1000 to 50000 |
| O=C(Nc1ccc(-c2n[nH]c(=O)c3ccccc23)cc1)c1cccc(N2CCCC2)c1 [Example 62, N-[4-(4-oxo-3,4-dihydrophthalazin-1-yl)phenyl]-3-(pyrrolidin-1-yl)benzamide] | 0.1 to 100 | 0.1 to 100 |
| O=C(Nc1ccc(-c2n[nH]c(=O)c3ccccc23)cc1)C1Cc2cc(O)ccc2O1 (centres unmarked) [Example 106, 5-hydroxy-N-[4-(4-oxo-3,4-dihydrophthalazin-1-yl)phenyl]-2,3-dihydro-1-benzofuran-2-carboxamide] | 0.1 to 100 | 1000 to 50000 |
| O=C(Nc1ccc(-c2n[nH]c(=O)c3ccccc23)cc1)c1c[nH]c(-c2ccccc2)n1 [Example 230, N-[4-(4-oxo-3,4-dihydrophthalazin-1-yl)phenyl]-2-phenyl-1H-imidazole-4-carboxamide] | 0.1 to 100 | 0.1 to 100 |
| O=C(Cc1ccc(-c2n[nH]c(=O)c3ccccc23)cc1)N1CCc2ccc(OCc3ccccn3)cc21 [Example 271, 4-(4-{2-oxo-2-[6-(pyridin-2-ylmethoxy)-2,3-dihydro-1H-indol-1-yl]ethyl}phenyl)-1,2-dihydrophthalazin-1-one] | 0.1 to 100 | 0.1 to 100 |
| COc1cc(-c2n[nH]c(=O)c3ccccc23)ccc1NC(=O)c1nn(CC2CCOC2)c2ccccc12 (centres unmarked) [Example 352, N-(2-Methoxy-4-(4-oxo-3,4-dihydrophthalazin-1-yl)phenyl)-1-((tetrahydrofuran-3-yl)methyl)-1H-indazole-3-carboxamide] | 101 to 1000 | 1000 to 50000 |
| O=C(Nc1ccc(-c2n[nH]c(=O)c3ccccc23)cc1)c1nn(Cc2cccnc2)c2ccccc12 [Example 161, N-[4-(4-oxo-3,4-dihydrophthalazin-1-yl)phenyl]-1-(pyridin-3-ylmethyl)-1H-indazole-3-carboxamide] | 0.1 to 100 | 0.1 to 100 |
| O=C(Cc1ccc(-c2n[nH]c(=O)c3ccccc23)cc1)Nc1ccccc1 [Example 20, 2-[4-(4-oxo-3,4-dihydrophthalazin-1-yl)phenyl]-N-phenylacetamide] | 101 to 1000 | 1000 to 50000 |
| O=C(Nc1ccc(-c2n[nH]c(=O)c3ccccc23)cc1)c1nn(CC2CCOCC2)c2ccccc12 [Example 150, 1-(oxan-4-ylmethyl)-N-[4-(4-oxo-3,4-dihydrophthalazin-1-yl)phenyl]-1H-indazole-3-carboxamide] | 0.1 to 100 | 0.1 to 100 |
| O=C(Nc1ccc(-c2n[nH]c(=O)c3ccccc23)cc1)c1ccc(N2CCCC2)cc1 [Example 60] | 0.1 to 100 | 0.1 to 100 |
| O=C(Nc1ccc(-c2n[nH]c(=O)c3ccccc23)cc1)c1cnn(C2CCNC2)c1 (centres unmarked) [Example 397, N-(4-(4-Oxo-3,4-dihydrophthalazin-1-yl)phenyl)-1-(pyrrolidin-3-yl)-1H-pyrazole-4-carboxamide] | 101 to 1000 | 1000 to 50000 |
| Cn1nc(C2CC2)cc1C(=O)Nc1ccc(-c2n[nH]c(=O)c3ccccc23)cc1 [Example 407, 3-Cyclopropyl-1-methyl-N-(4-(4-oxo-3,4-dihydrophthalazin-1-yl)phenyl)-1H-pyrazole-5-carboxamide] | 0.1 to 100 | 0.1 to 100 |
| Cc1cc(C(=O)Nc2ccc(-c3n[nH]c(=O)c4ccccc34)cc2)nn1-c1ccccc1 [Example 213, 5-methyl-N-[4-(4-oxo-3,4-dihydrophthalazin-1-yl)phenyl]-1-phenyl-1H-pyrazole-3-carboxamide] | 0.1 to 100 | 0.1 to 100 |
| O=C(Nc1ccc(-c2n[nH]c(=O)c3ccccc23)cc1)c1cnn(C2CCOCC2)c1 [Example 384, N-(4-(4-Oxo-3,4-dihydrophthalazin-1-yl)phenyl)-1-(tetrahydro-2H-pyran-4-yl)-1H-pyrazole-4-carboxamide] | 0.1 to 100 | 101 to 1000 |
| O=C(Nc1ccc(-c2n[nH]c(=O)c3ccccc23)cc1)c1n[nH]c(-c2ccccn2)n1 [Example 237, N-[4-(4-oxo-3,4-dihydrophthalazin-1-yl)phenyl]-5-(pyridin-2-yl)-1H-1,2,4-triazole-3-carboxamide] | 0.1 to 100 | 101 to 1000 |
